Data set [1] concerns the target T1, MpMurA (Marchantia polymorpha, UniProt A0A2R6X746).
T1 construct: gene MARPO_0032s0102; codon-optimised synthetic gene, E. coli BL21(DE3); His-tag removed with 3C protease; IMAC and SEC
T1 sequence (A0A2R6X746 46-482): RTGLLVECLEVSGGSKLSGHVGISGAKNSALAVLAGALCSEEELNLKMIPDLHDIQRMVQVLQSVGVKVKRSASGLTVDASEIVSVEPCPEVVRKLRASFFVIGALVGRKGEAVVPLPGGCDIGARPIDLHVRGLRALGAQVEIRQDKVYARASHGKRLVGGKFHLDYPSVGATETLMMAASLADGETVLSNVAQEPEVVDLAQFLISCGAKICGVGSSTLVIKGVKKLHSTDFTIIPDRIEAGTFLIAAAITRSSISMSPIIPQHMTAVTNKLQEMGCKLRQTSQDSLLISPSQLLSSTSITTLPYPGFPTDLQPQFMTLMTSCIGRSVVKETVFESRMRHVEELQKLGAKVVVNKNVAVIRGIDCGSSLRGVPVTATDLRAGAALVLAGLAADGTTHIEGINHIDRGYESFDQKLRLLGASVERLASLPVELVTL
Nature of the data set: phosphate release by malachite green; EPSP product by LC-MS/MS. The class given is biochemical. The note with it: 1 mM S3P, 1 mM PEP; pH 7.5, 25 °C. The text has this: phosphate release by malachite green; EPSP product by LC-MS/MS on MpMurA | Phosphate was produced by MpMurA in the presence of […] and PEP

Data set [2] concerns the target T1, MpMurA. Nature of the data set: phosphate release by malachite green. The class given is biochemical. To be noted: 1 mM UDP-GlcNAc, 1 mM PEP; pH 7.5, 25 °C.
The target in the next data set is T2, AtEPSPS (Arabidopsis thaliana, UniProt P05466).
T2 construct: gene At2g45300; codon-optimised synthetic gene, E. coli BL21(DE3); His-tag removed with 3C protease; IMAC and SEC
T2 sequence (P05466 77-520): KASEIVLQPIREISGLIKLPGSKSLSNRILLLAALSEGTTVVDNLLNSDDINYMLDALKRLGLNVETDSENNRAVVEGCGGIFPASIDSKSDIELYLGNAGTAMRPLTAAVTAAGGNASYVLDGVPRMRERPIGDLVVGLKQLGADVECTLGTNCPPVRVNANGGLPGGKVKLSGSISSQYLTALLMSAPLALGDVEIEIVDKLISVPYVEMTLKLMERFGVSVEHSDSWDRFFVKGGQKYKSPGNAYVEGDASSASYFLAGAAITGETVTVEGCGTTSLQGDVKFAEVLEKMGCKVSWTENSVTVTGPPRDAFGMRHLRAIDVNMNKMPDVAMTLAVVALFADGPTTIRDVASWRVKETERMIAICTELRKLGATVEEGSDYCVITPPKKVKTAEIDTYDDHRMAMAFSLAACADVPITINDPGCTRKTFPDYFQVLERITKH
Nature of the data set: dose-response of enzyme activity, phosphate release by malachite green. The class given is biochemical.

The target of a further data set is T3, MpEPSPS (Marchantia polymorpha, UniProt A0A2R6X5Y9).
T3 construct: gene MARPO_0034s0104; codon-optimised synthetic gene, E. coli BL21(DE3); His-tag removed with 3C protease; IMAC and SEC
T3 sequence (A0A2R6X5Y9 79-527): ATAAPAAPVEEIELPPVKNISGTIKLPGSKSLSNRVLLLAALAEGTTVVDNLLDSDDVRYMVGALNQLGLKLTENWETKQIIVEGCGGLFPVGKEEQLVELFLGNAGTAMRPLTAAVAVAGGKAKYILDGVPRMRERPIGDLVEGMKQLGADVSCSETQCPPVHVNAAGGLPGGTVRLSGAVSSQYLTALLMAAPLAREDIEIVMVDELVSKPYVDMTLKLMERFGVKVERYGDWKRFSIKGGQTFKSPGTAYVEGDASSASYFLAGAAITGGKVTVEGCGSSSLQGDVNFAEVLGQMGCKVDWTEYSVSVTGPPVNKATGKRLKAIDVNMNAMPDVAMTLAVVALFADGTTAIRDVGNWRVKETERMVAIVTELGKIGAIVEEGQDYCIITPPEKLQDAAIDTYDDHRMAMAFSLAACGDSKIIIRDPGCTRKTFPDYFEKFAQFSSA
Described as above. The class given is biochemical.

Substrate in data set [3]: O=C(O)C1=C[C@@H](OP(=O)(O)O)[C@@H](O)[C@H](O)C1
The data set is described as follows: Michaelis-Menten kinetics, phosphate release by malachite green. The class given is biochemical, Marchantia polymorpha. To be noted: co-substrate PEP, pH 7.5, 25 °C.

Substrate in data set [4]: C=C(OP(=O)(O)O)C(=O)O
The description is as above. Format: biochemical, Marchantia polymorpha. To be noted: co-substrate S3P, pH 7.5, 25 °C.

Substrate in the data set “purified protein”: C=C(OP(=O)(O)O)C(=O)O
The data set is described as follows: purified protein. To be noted: co-substrate S3P, pH 7.5, 25 °C.

Substrate in data set [5]: O=C(O)C1=C[C@@H](OP(=O)(O)O)[C@@H](O)[C@H](O)C1
The data set is described as follows: Michaelis-Menten kinetics, phosphate release by malachite green. Format: biochemical, Arabidopsis thaliana. The note with it: co-substrate PEP, pH 7.5, 25 °C.

As to `O=C(O)C1=C[C@@H](OP(=O)(O)O)[C@@H](O)[C@H](O)C1` [S3P], the “phosphate release by malachite green; EPSP product by LC-MS/MS” value on MpMurA [1] was “Phosphate was produced by MpMurA in the presence of S3P and PEP”.
With `CC(=O)N[C@H]1[C@@H](OP(=O)(O)OP(=O)(O)OC[C@H]2O[C@@H](n3ccc(=O)[nH]c3=O)[C@H](O)[C@@H]2O)O[C@H](CO)[C@@H](O)[C@@H]1O` [UDP-GlcNAc], the “phosphate release by malachite green” value at MpMurA [2] was “the activity of MpMurA with its canonical substrates, UDP-GlcNAc and PEP, were measured”.
As for `O=C(O)CNCP(=O)(O)O` [glyphosate], the IC50 on AtEPSPS amounted to 14.5 ± 5.98 µM; against MpEPSPS, 9.6 ± 9.12 µM.

B1: MpEPSPS (Marchantia polymorpha) (protein)
chain: ATAAPAAPVEEIELPPVKNISGTIKLPGSKSLSNRVLLLAALAEGTTVVDNLLDSDDVRYMVGALNQLGLKLTENWETKQIIVEGCGGLFPVGKEEQLVELFLGNAGTAMRPLTAAVAVAGGKAKYILDGVPRMRERPIGDLVEGMKQLGADVSCSETQCPPVHVNAAGGLPGGTVRLSGAVSSQYLTALLMAAPLAREDIEIVMVDELVSKPYVDMTLKLMERFGVKVERYGDWKRFSIKGGQTFKSPGTAYVEGDASSASYFLAGAAITGGKVTVEGCGSSSLQGDVNFAEVLGQMGCKVDWTEYSVSVTGPPVNKATGKRLKAIDVNMNAMPDVAMTLAVVALFADGTTAIRDVGNWRVKETERMVAIVTELGKIGAIVEEGQDYCIITPPEKLQDAAIDTYDDHRMAMAFSLAACGDSKIIIRDPGCTRKTFPDYFEKFAQFSSA
notes: codon-optimised synthetic gene, E. coli BL21(DE3); His-tag removed with 3C protease; IMAC and SEC
B1: the Km in data set [3] is 119.7 ± 12.82 µM; in data set [4], 180 ± 26 µM.

B2: AtEPSPS (Arabidopsis thaliana) (protein)
chain: KASEIVLQPIREISGLIKLPGSKSLSNRILLLAALSEGTTVVDNLLNSDDINYMLDALKRLGLNVETDSENNRAVVEGCGGIFPASIDSKSDIELYLGNAGTAMRPLTAAVTAAGGNASYVLDGVPRMRERPIGDLVVGLKQLGADVECTLGTNCPPVRVNANGGLPGGKVKLSGSISSQYLTALLMSAPLALGDVEIEIVDKLISVPYVEMTLKLMERFGVSVEHSDSWDRFFVKGGQKYKSPGNAYVEGDASSASYFLAGAAITGETVTVEGCGTTSLQGDVKFAEVLEKMGCKVSWTENSVTVTGPPRDAFGMRHLRAIDVNMNKMPDVAMTLAVVALFADGPTTIRDVASWRVKETERMIAICTELRKLGATVEEGSDYCVITPPKKVKTAEIDTYDDHRMAMAFSLAACADVPITINDPGCTRKTFPDYFQVLERITKH
notes: as for B1
As to B2, the figures for the Km (in the data set “purified protein”; in data set [5]) were 163 ± 34 µM and 196.7 ± 44.63 µM, respectively.

Source of the values: PMC11588093, “MurA-catalyzed synthesis of 5-enolpyruvylshikimate-3-phosphate confers glyphosate tolerance in bryophytes” (Proceedings of the National Academy of Sciences of the …, 2024).
